Source: paper PMC10886891, “Enhanced Tumor Targeting and Antitumor Activity of Methylated β-Cyclodextrin-Threaded Polyrotaxanes by Conjugating Cyclic RGD Peptides” (Biomolecules, 2024)

How the values were obtained:
4T1 cells = assay: Autophagic cell death: viability of 4T1 cells with 3-MA; assay type: cell-based, murine; settings: 2 mM 3-MA, 48 h
Description: To investigate the induction of autophagic cell death by cRGD-Me-PRXs, 4T1cells were pretreated with 2 mM 3-methyladenine (3-MA; Fujifilm Wako Pure Chemical) for 1 h, followed by treatment with cRGD-Me-PRXs (100 μM threaded β-CD) in the presence of 3-MA for 48 h at 37 °C. Cell viability was determined as described above.

[1] = system: integrin αv (Itgav) mRNA in 4T1 cells; assay: Downregulation of integrin αv by siRNA (RT-PCR); assay type: cell-based, murine; settings: compared with siControl; 30 nM, 24 h, normalized to Gapdh, n = 4
Description: siRNAs against murine integrin subunit alpha V (siItgav; sense: 5′-[…]-3′, antisense: 5′-[…]-3′) and Mission siRNA universal negative control were purchased from Merck. The siRNAs were transfected into 4T1 cells using the Lipofectamine 3000 Transfection Reagent (Thermo Fisher Scientific) at 30 nM for 24 h according to the manufacturer’s instructions. Total RNA was extracted from 4T1 cells using the FastGene RNA Premium Kit (Nippon Genetics, Tokyo, Japan) following the manufacturer’s instructions. The total RNA concentration was measured using a NanoDrop One spectrophotometer (Thermo Fisher Scientific). Total RNA was then converted into cDNA using ReverTra Ace qPCR RT master mix (Toyobo, Osaka, Japan). RT-PCR was performed using the Thunderbird SYBR qPCR mix (Toyobo) on a CFX Connect Real-Time System (Bio-Rad, Hercules, CA, USA). The PCR primer sequences were as follows: murine integrin subunit alpha V (Itgav), forward: 5′-[…]-3′, reverse: 5′-[…]-3′, murine glyceraldehyde 3-phosphate dehydrogenase (Gapdh) forward: 5′-[…]-3′, reverse: 5′-[…]-3′. The PCR cycling conditions included a pre-denaturation at 95 °C for 1 min, followed by 40 cycles of denaturation at 95 °C for 15 s and extension at 60 °C for 30 s. The mRNA expression levels in each sample were determined by the comparative CT (ΔΔCT) method and were normalized to the expression levels of Gapdh.

[2] = among various β-CD derivatives; cited from earlier work
Excerpt: Β-Cyclodextrin (β-CD) is a cyclic oligosaccharide comprising seven glucose units connected with α-1,4-linkages. Β-CD and its derivatives can incorporate various low-molecular-weight compounds, such as free cholesterol, into their hydrophobic cavity. Recently, the therapeutic applications of β-CD derivatives have received considerable attention, because they improve the pathology of various metabolic diseases, such as Niemann–Pick type C (NPC) disease, Alzheimer’s disease, and atherosclerosis, through the removal of excess free ch ...

Blood chemical analysis = assay type: in vivo, BALB/c mice; settings: 500 mg/kg i.v., 24 h
Description: The PRXs dissolved in PBS were intravenously administered at a dose of 500 mg/kg to female BALB/c mice (8 weeks). […] Plasma levels of blood urea nitrogen (BUN), creatinine (CRE), aspartate aminotransferase (AST), alanine aminotransferase (ALT), free cholesterol (F-CHO), cholesteryl esters (E-CHO), triglycerides (TG), and glucose (GLU) were measured using a Hitachi 7180 automatic analyzer (Hitachi, Tokyo, Japan). In addition, the mice were perfused with saline, and the major organs (heart, liver, spleen, lungs, and kidneys) were collected. The organs were fixed in 10% formalin solution for 1 d and embedded in paraffin. The paraffin blocks were cut into 3 μm sections, which were successively stained with H&E solution to assess histological alterations by bright-field microscope.

[3] = system: various cells, such as normal cells and apoptosis-resistant cells; settings: through interactions with cellular cholesterol; cited from earlier work
Excerpt: Β-Cyclodextrin (β-CD) is a cyclic oligosaccharide comprising seven glucose units connected with α-1,4-linkages. Β-CD and its derivatives can incorporate various low-molecular-weight compounds, such as free cholesterol, into their hydrophobic cavity. […] 3-Methyladenine (3-MA) is a commonly used inhibitor of autophagy that functions by inhibiting class III phosphoinositide 3-kinase (PI3K) activity, which plays a pivotal role in autophagy induction. […] To exclude the effects of 3-MA on 4T1 cell viability, cRGD-Me-PRX-t ...

[4] = Cholesterol solubilization (phase solubility); assay type: physicochemical; settings: pH 7.4, 24 h, 37 °C, n = 3
Description: Figure 2 (A) ^1H NMR spectra of Me- N3-PRX and cRGD-Me-PRX in D2O at 25 °C. (B) FT-IR spectra of Me-N3-PRX and cRGD-Me-PRX. (C) Time course of the cleavage of N-Trt end groups in Me-PRX, cRGD-Me-PRX, and cRGE-Me-PRX at pH 7.4 (open symbols) and pH 5.0 (closed symbols) at 37 °C. The data are expressed as the mean ± SD (n = 3). (D) Phase-solubility diagrams of cholesterol with Me-β-CD, cRGD-Me-β-CD, Me-PRX, cRGD-Me-PRX, and cRGE-Me-PRX at pH 7.4 (brown bars) and pH 5.0 (blue bars). The solubility of cholesterol was determined after incubation for 24 h at 37 °C. The data are expressed as the mean ± SD (n = 3; **** p < 0.0001; ns: not significant).
Another important aspect of Me-PRXs is the ability of released β-CDs to form an inclusion complex with intracellular cholesterol, because the interaction with intracellular cholesterol contributes to the induction of cell death. To assess this, the solubility of cholesterol was measured by incubating with Me-PRXs at pH 7.4 (physiological pH) and 5.0 (lysosomal pH) for 24 h was measured (Figure 2D). […] Additionally, the number of methyl groups of cRGD-Me-β-CD (12.5) was less than that of Me-β-CD (14.0), which may explain the reduced cholesterol solubilization capacity.

[5] = Biodistribution in 4T1 tumor-bearing mice; assay type: in vivo, BALB/c mice; settings: 24 h after i.v., Cy5.5-labeled; 500 mg/kg (Figure 7), 300 mg/kg; n = 6
Description: Animal experiments were approved by the Institutional Animal Care and Use Committee of Tokyo Medical and Dental University. Wild-type BALB/c mice (female, 8-weeks-old) were purchased from Japan SLC (Shizuoka, Japan). Cy5.5-labeled PRXs and CDs were intravenously administered to the mice at a dose of 300 mg/kg. After 24 h, the mice were anesthetized with an intraperitoneal injection of an anesthetized solution containing medetomidine hydrochloride (0.75 mg/kg), midazolam (4 mg/kg), and butorphanol tartrate (5 mg/kg). […] The mice were then perfused with saline, and the hearts, livers, lungs, spleens, kidneys, and tumors were harvested. The collected tissues (approximately 50 mg) were homogenized using a bead beater-type homogenizer (Beads Crusher μT-12; Taitec, Saitama, Japan) at 3000 rpm for 45 s. After centrifuging the homogenates (8000 rpm, 10 min), the supernatant was collected. The fluorescence intensities of the plasma and tissue homogenates were measured using Varioskan LUX at excitation and emission wavelengths of 673 and 707 nm, respectively. The amount of accumulated PRXs in the plasma and each tissue was calculated using the standard curve of Cy5.5-labeled Me-PRXs and Me-β-CDs, and the mean percentage of the injected dose per gram of tissue (ID %/g tissue) was determined for each sample.

Cn1cnc(N)c2ncnc1-2 [3-MA, 3-methyladenine]
effect on 4T1 cell viability alone (4T1 cells): did not affect cell viability

siItgav: siRNA against murine integrin subunit alpha V; sense: 5′-GACUUAGUUGUAGGAGCUU-3′, antisense: 5′-AAGCUCCUACAACUAAGUC-3′ (chemistry not given here)
expression level of integrin αv [1]: 32.9%

Randomly methylated β-CD [Me-β-CD]
ability to form inclusion complexes with free cholesterol [2]: highest ability to form inclusion complexes with free cholesterol | hepatic and renal toxicity (Blood chemical analysis): hepatic and renal toxicities | plasma AST (Blood chemical analysis; n = 6): increased | plasma BUN (Blood chemical analysis; n = 6): increased | plasma CRE (Blood chemical analysis; n = 6): increased | apoptosis [3]: induced apoptosis | solubilization of cholesterol [4]: solubilization of cholesterol was observed | accumulation in kidney [5]: mostly accumulated in the kidney
